Assay results reported in US20170119907A1, “Targeted Therapeutics” (MEDIVATION TECHNOLOGIES, INC., priority 2014, published 2017).

Tests used:
Type in all cases: cell-based
Raji cells = test: Binding to Raji cells (fluorescence, Gel Logic system); settings: 10 μM in PBS; 1, 5, 15 or 30 minutes; 530 nm/600 nm; FIG. 2B
Procedure: 10^6 Raji cells were incubated with 10 μM Compound 4 or 10 μM Compound 20 in PBS or with PBS alone for 1, 5, 15 or 30 minutes. Cells were washed once in PBS and then the fluorescence of Compound 4 or Compound 20 was analyzed in a Gel Logic system with 530 nm/600 nm excitation/emission settings.

human MSCs = test: Adherence of human MSCs to rabbit dorsal femoral condyle explants; settings: photomicrographs, FIG. 6A
[1] = system: MSCs from sheep bone marrow; test: Differentiation of sheep MSCs to chondrocytes in pellet culture (modified Bern Score); settings: for Cell Distance / Matrix Stain / Morphology: score 0-3; for Final Score (Bern Score): score 0-9
Procedure: Compounds of the invention were assessed in an in vitro pellet cell culture model of chondrogenesis.
Conditions tested were: • a. (1) Priming: exposure of cells to TGFβ3 prior to incubation with Compound 4 or Compound 20; • b. (2) Dose: Concentration of Compound 4 or Compound 20 that cells were incubated with prior to pellet culture; and • c. (3) Media: presence or absence of TGFβ3 in the media used for the 3-week pellet culture duration.
A population of cells enriched for MSCs from sheep bone marrow was harvested, cultured and expanded. Cells from passage 3 (P3) were incubated with either chondrogenic differentiation medium for the Priming “+” groups or chondrogenic differentiation medium without TGFβ3 for the Priming “−” groups. Following centrifugation at 400×g for 5 min and gentle removal of the supernatant, cells were re-suspended with the appropriate number of cells in Compound 4 or Compound 20 in 1×PBS, pH 7, at following concentrations: 10 μM, 3.16 μM, 1 μM, and 0.316 μM of Compound 4; or 10 μM and 1 μM of Compound 20. For control conditions, cells were incubated in 1×PBS at pH 7. All treatment groups were then incubated for 30 min in the dark with nutation. Following centrifugation at 400×g for 5 min and gentle removal of the supernatant, cells were re-suspended and washed with 1×PBS at pH 7 and spun at 400×g for 5 min to remove supernatant. Depending on the condition, cells were re-suspended cells in chondrogenic differentiation medium OR in chondrogenic medium without TGFb3. Cells were counted, and approximately 2.5×10^5 cells were plated into polypropylene 96-well plates incubated under standard pellet culture conditions for three weeks. Medium was changed 3× weekly.
Pellets were fixed in 10% formalin for at least 8 hours and then infiltrated with paraffin wax. Sections were then cut at approximately 5 microns and stained using safranin-orange, Fast Green, Haematoxylin-Eosin, and 1% Toluidine Blue.
Histological grading was performed according to a modified Bern Score to assess chondrogenic morphology of the cells and any matrix deposition by the cells according to the following three criteria:
The subcomponents of the Bern Score are additive. Accordingly, the Bern Score presents a maximum total score of 9 representing the best possible score and minimum score of 0 representing no chondrogenesis.
In this Example, the Bern Score for Control pellets is a proxy for chondrogenic capacity of the cell population using a standard pellet culture protocol. […] Pellets that were formed using the 30 minute incubation protocol with only PBS replacing Compound 4 (0 μM Compound 4) are referred to as “PBS pellets.”

[2] = system: human MSCs / rabbit dorsal femoral condyle explants; test: Adherence of calcein-labeled human MSCs to rabbit dorsal femoral condyle explants; settings: MSCs incubated with compound (Compound 4: 5 μM or 10 μM), 30 min or 10 min; 475/535 nm; FIG. 6A
Procedure: Human MSCs were labeled with calcein for 30 min, washed with PBS, and incubated with Compound 4 (5 μM or 10 μM) or with PBS for 30 min. Rabbit dorsal femoral condyle explants were then incubated for 30 min with (1) the PBS-incubated, calcein-labeled MSCs, (2) the calcein-labeled MSCs incubated with 5 μM Compound 4, or (3) the calcein-labeled MSCs incubated with 10 μM Compound 4. Explants were washed twice with excess PBS, and the 475/535 nm filter set on the Molecular Imaging Gel Logic system was used to detect the binding of MSCs to the explants by detecting the calcein. In another experiment, the procedure was repeated with two batches of Compound 4, and with Compound 20, with an incubation time of 10 min instead of 30 min.

[3] = Differentiation Medium +, TGFβ3 Priming +, 0.316 μM
[4] = Differentiation Medium +, TGFβ3 Priming +, 1 μM
[5] = Differentiation Medium +, TGFβ3 Priming +, 3.16 μM
[6] = Differentiation Medium +, TGFβ3 Priming +, 10 μM
[7] = Differentiation Medium +, TGFβ3 Priming −, 0.316 μM
[8] = Differentiation Medium +, TGFβ3 Priming −, 1 μM
[9] = Differentiation Medium +, TGFβ3 Priming −, 3.16 μM
[10] = Differentiation Medium +, TGFβ3 Priming −, 10 μM
[11] = Differentiation Medium −, TGFβ3 Priming +, 0.316 μM
[12] = Differentiation Medium −, TGFβ3 Priming +, 1 μM
[13] = Differentiation Medium −, TGFβ3 Priming +, 3.16 μM
[14] = Differentiation Medium −, TGFβ3 Priming +, 10 μM

Cc1cc2nc3cc(C)c(NCCCCCCCCNc4cc5c(cc4C)nc4cc(C)c(N)cc4[n+]5-c4ccccc4)cc3[n+](-c3ccccc3)c2cc1N.[Cl-].[Cl-] [Compound 4, 7,7′-(octane-1,8-diylbis(azanediyl))bis(3-amino-2,8-dimethyl-5-phenylphenazin-5-ium) chloride]
Binding to Raji cells (fluorescence) (Raji cells): bind to Raji cells
adherence of human MSCs to rabbit dorsal femoral condyle explants (human MSCs): promote adherence
Chondrogenic capacity (in words) ([1]; 3.16 μM and differentiation medium): good chondrogenic capacity
Cell Distance [1, 3]: 3
Matrix Stain [1, 3]: 3
Morphology [1, 3]: 3
Final Score (Bern Score) [1, 3]: 9
Cell Distance [1, 4]: 2.5
Matrix Stain [1, 4]: 3
Morphology [1, 4]: 2
Final Score (Bern Score) [1, 4]: 7.5
Cell Distance [1, 5]: 2
Matrix Stain [1, 5]: 2
Morphology [1, 5]: 2
Final Score (Bern Score) [1, 5]: 6
Cell Distance [1, 6]: 0
Matrix Stain [1, 6]: 0
Morphology [1, 6]: 0
Final Score (Bern Score) [1, 6]: 0
Cell Distance [1, 7]: 2.5
Matrix Stain [1, 7]: 3
Morphology [1, 7]: 2.5
Final Score (Bern Score) [1, 7]: 8
Cell Distance [1, 8]: 2
Matrix Stain [1, 8]: 2.5
Morphology [1, 8]: 2
Final Score (Bern Score) [1, 8]: 6.5
Cell Distance [1, 9]: 2
Matrix Stain [1, 9]: 2
Morphology [1, 9]: 2
Final Score (Bern Score) [1, 9]: 6
Cell Distance [1, 10]: 0
Matrix Stain [1, 10]: 0.5
Morphology [1, 10]: 0
Final Score (Bern Score) [1, 10]: 0.5
Cell Distance [1, 11]: 0
Matrix Stain [1, 11]: 0
Morphology [1, 11]: 0
Final Score (Bern Score) [1, 11]: 0
Cell Distance [1, 12]: 0
Matrix Stain [1, 12]: 0
Morphology [1, 12]: 0
Final Score (Bern Score) [1, 12]: 0
Cell Distance [1, 13]: 0
Matrix Stain [1, 13]: 0.5
Morphology [1, 13]: 0
Final Score (Bern Score) [1, 13]: 0.5
Cell Distance [1, 14]: 0
Matrix Stain [1, 14]: 0
Morphology [1, 14]: 0
Final Score (Bern Score) [1, 14]: 0
Adherence of calcein-labeled human MSCs to explants [2]: promote adherence

Cc1cc2nc3cc(C)c(NCCCCCCNC(=O)c4ccc(-c5ccc(C(=O)NCCCCCCNc6cc7c(cc6C)nc6cc(C)c(N)cc6[n+]7-c6ccccc6)cc5)cc4)cc3[n+](-c3ccccc3)c2cc1N.[Cl-].[Cl-] [Compound 20, (3-amino-7-{[6-({4-[4-({6-[(7-amino-5-chloranuide-2,8-dimethyl-5-phenyl-5λ^6,10-phenazin-5-ylium-3-yl)amino]hexyl}carbamoyl)phenyl]phenyl}formamido)hexyl]amino}-2,8-dimethyl-5-phenyl-5λ^6,10-phenazin-5-ylium-5-e)chloranuide]
Binding to Raji cells (fluorescence) (Raji cells): bind to Raji cells
adherence of human MSCs to rabbit dorsal femoral condyle explants (human MSCs): promote adherence
Cell Distance [1, 4]: 3
Matrix Stain [1, 4]: 3
Morphology [1, 4]: 2.5
Final Score (Bern Score) [1, 4]: 8.5
Cell Distance [1, 6]: 2.5
Matrix Stain [1, 6]: 2.5
Morphology [1, 6]: 2.5
Final Score (Bern Score) [1, 6]: 7.5
Cell Distance [1, 8]: 2.5
Matrix Stain [1, 8]: 2.5
Morphology [1, 8]: 2
Final Score (Bern Score) [1, 8]: 7
Cell Distance [1, 10]: 2
Matrix Stain [1, 10]: 2
Morphology [1, 10]: 2
Final Score (Bern Score) [1, 10]: 6
Cell Distance [1, 12]: 0
Matrix Stain [1, 12]: 0
Morphology [1, 12]: 0
Final Score (Bern Score) [1, 12]: 0
Cell Distance [1, 14]: 0
Matrix Stain [1, 14]: 0
Morphology [1, 14]: 0
Final Score (Bern Score) [1, 14]: 0
Chondrogenic capacity (in words) ([1]; either concentration tested (10 μM and 1 μM) and differentiation medium): good chondrogenic capacity
Adherence of calcein-labeled human MSCs to explants [2]: promote adherence
